The text below walks through data of patent publication US9585964B2, “Liver targeted conjugates” (President and Fellows of Harvard College, priority 2005, dated 2017).

The test system of the test is hepatic injury induced by carbon tetrachloride (CCl4). The experiment in a line: mouse model of hepatic injury induced by carbon tetrachloride (CCl4); serum ALT and AST. The following applies: ICR mice; for increase in serum ALT compared to the vehicle control / increase in serum AST compared to the vehicle control: CCl4. The test is classed as in vivo. The protocol:
An indomethacin-simvastatin conjugate (Ind-S) and lovastatin alone were evaluated for possible hepatoprotective activity in a mouse model of hepatic injury induced by carbon tetrachloride (CCl4). Ind-S at 0.5, 1 and 5 μmol/kg and lovastatin at 30 mg/kg were each administered intraperitoneally 0.5 hour before and at 4 and 8 hours after CCl4 challenge. The degree of hepatic injury was manifested by increases in alanine aminotransferase (ALT) and aspartate aminotransferase (AST) levels relative to the vehicle-treated animals. A decrease of 30% or more in serum ALT or AST is considered significant protective activity. The test substances were provided at the indicated concentrations. […] The test substances were administered intraperitoneally at 0.5 hour before and 4 and 8 hours after CCl4 administration to test mice. The dosing volume was 5 mL/kg. Male ICR derived mice weighing 24±2 g and provided by BioLasco Taiwan, a Charles River Laboratories Technology Licensee, were used in the study Space allocation for animals was 29×18×13 cm for 10 mice. The animals were housed in APEC^R cages. All animals were maintained in a hygienic environment under controlled temperature (22-24° C.) and humidity (60%-70%) with 12 hours light/dark cycles for at least one week prior to use with free access to standard lab chow (LabDiet Rodent Diet, PMI Nutrition International, USA) and tap water. Seven groups of five ICR derived male mice (weighing 24±2 g) were used. Each animal was challenged with a single dose of carbon tetrachloride (CCl4, 0.1 mL/kg in 50% olive oil, PO). The test substances were administered intraperitoneally at 30 minutes before and 4, 8 hours after carbon tetrachloride challenge and the animals were sacrificed 24 hours later. Serum alanine aminotransferase (ALT) and aspartate aminotransferase (AST) levels were measured by optimized UV method using a HITACHI automatic analyzer (model 7050). Silymarin (300 mg/kg, PO) as the positive control agent was administered orally to test animals at the same time.

Take `COc1ccc2c(c1)c(CC(=O)OCCNC(=O)CCC(C)(C)C(=O)O[C@H]1C[C@@H](C)C=C3C=C[C@H](C)[C@H](CC[C@@H]4C[C@@H](O)CC(=O)O4)[C@H]31)c(C)n2C(=O)c1ccc(Cl)cc1` [Ind-S, 6(R)-[2-[8(S)-{4-(2-{2-[1-(4-Chloro-benzoyl)-5-methoxy-2-methyl-1H-indol-3-yl]-acetoxy}-ethylcarbamoyl)-2,2-dimethyl-butyryloxy}-2(S),6(R)-dimethyl-1,2,6,7,8,8,a(R)-hexahydronaphthyl-1(S)]ethyl]-4(R)-hydroxy-3,4,5,6-tetrahydro-2H-Pyran-2-one]: for the setting “5 μmol/kg IP, 0.5 h before and 4 and 8 h after CCl4, non-significant”, the “reduction in serum ALT level relative to the vehicle-treated group” value amounted to 21%. For the same compound, the “reduction of AST activity relative to the vehicle-treated group” value (5 μmol/kg IP, 0.5 h before and 4 and 8 h after CCl4, serum at 24 h) is reported as 34%.

As for `CC[C@H](C)C(=O)O[C@H]1C[C@@H](C)C=C2C=C[C@H](C)[C@H](CC[C@@H]3C[C@@H](O)CC(=O)O3)[C@H]21` [Lovastatin], under “30 mg/kg IP”, the “increase in serum ALT compared to the vehicle control” value came to 17% and the “increase in serum AST compared to the vehicle control” value is 38%.

Turning to `COc1ccc2c(c1)c(CC(=O)O)c(C)n2C(=O)c1ccc(Cl)cc1` [indomethacin], for the setting “5 μmol/kg IP”, the “increase in serum ALT compared to the vehicle control” value was 39% and the “increase in serum AST compared to the vehicle control” value was determined as 73%.
